Data published in patent US11547681B2, “N-acylethanolamide derivatives and uses thereof” (ELIEM THERAPEUTICS, INC., priority 2016, dated 2023).

How the values were obtained:
[1] = Plasma stability (37° C., pH 7.4), human; type: in vitro ADME; settings: for half-life at 1 μM: both sexes, human, plasma, read-out: Half-life; for % Remaining of Initial (n = 1), 0 min / % Remaining of Initial (n = 1), 15 min / % Remaining of Initial (n = 1), 30 min / % Remaining of Initial (n = 1), 60 min / % Remaining of Initial (n = 1), 120 min / % Remaining of Initial: human plasma; for % Remaining of Initial (n = 1), 0 min: pH 7.4, 0 min; for % Remaining of Initial (n = 1), 15 min: pH 7.4, 15 min; for % Remaining of Initial (n = 1), 30 min: pH 7.4, 30 min; for % Remaining of Initial (n = 1), 60 min: pH 7.4, 60 min; for % Remaining of Initial (n = 1), 120 min: pH 7.4, 120 min; for % Remaining of Initial (n = 1): Human plasma; for % Remaining of Initial: n = 1
Description: (§1) Studies were carried out in mixed-gender human plasma (Lot #GLP530-5), male Sprague-Dawley rat (Lot #RAT297944, RAT313140), male CD-1 mouse (Lot #MSE237700), and male Beagle dog (Lot #BGL87670, BGL82614), collected on sodium heparin. Plasma was adjusted to pH 7.4 prior to initiating the experiments. DMSO stocks were first prepared for the test articles. Aliquots of the DMSO solutions were dosed into 700 μL of plasma, which had been pre-warmed to 37° C., at a final test article concentration of 1 μM. […] Samples were stored at 4° C. until the end of the experiment. After the final time point was sampled, the plate was mixed and then centrifuged at 3,000 rpm for 10 minutes. Calibration standards were prepared in matched matrix. […] Analytical conditions are outlined in Appendix 8-1.
as §1, with “#AS1650-2),” for “#GLP530-5),”, “#RAT297944),” for “#RAT297944, RAT313140),”, “CD-I” for “CD-1”, “#BGL91384),” for “#BGL87670, BGL82614),”, “10-1.” for “8-1.”
Studies were carried out in mixed-gender human plasma (Lot #AS1650-2), male Sprague-Dawley rat (Lot #RAT297944), male CD-1 mouse (Lot #MSE237700), and male Beagle dog (Lot #BGL91384), collected on sodium heparin. Plasma was adjusted to pH 7.4 prior to initiating the experiments. DMSO stocks were first prepared for test articles. […] Samples were stored at 4° C. until the end of experiment. After the final time point was sampled, the plate was mixed and then centrifuged at 3,000 rpm for 10 minutes. Calibration standards were prepared in matched matrix. […] Analytical conditions are outlined in Appendix 13-1.
Studies were carried out in mixed-gender human plasma (Lot #AS 1650-2), male Sprague-Dawley rat (Lot #RAT320835), male CD-1 mouse (Lot #MSE260693), and 6 male Beagle dog (Lot #BGL91384), on sodium heparin. Plasma was adjusted to pH 7.4 prior to initiating the experiments. DMSO stocks were first prepared for the test articles. Aliquots of the DMSO solutions were dosed into 700 μL of plasma, which had been pre-warmed to 37° C., at a final test article concentration of 1 μM. […] Samples were stored at 4° C. until the end of the experiment. After the final time point was sampled, the plate was mixed and then centrifuged at 3,000 rpm for 10 minutes. Calibration standards were prepared in matched matrix. […] Analytical conditions are outlined in Appendix 17-1.

in vitro = settings: both, human; for Concentration (μM) of analyte PEA, 0 min / Concentration of analyte I-9 / Concentration of analyte PEA / Concentration (μM) of analyte PEA, 10 min / Concentration (μM) of analyte PEA, 20 min / Concentration (μM) of analyte PEA, 30 min / Concentration (μM) of analyte PEA, 60 min / % Remaining of Initial (n = 1) / % Remaining of Initial (n = 1), 0 min / % Remaining of Initial (n = 1), 10 min / % Remaining of Initial (n = 1), 20 min / % Remaining of Initial (n = 1), 30 min / % Remaining of Initial (n = 1), 60 min / Concentration, analyte PEA / Measured concentration of PEA (analyte) / % Remaining of Initial: 1 μM
Method in brief: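 Test article (1 μM final) pre-equilibrated with intestinal S9 at 37 °C, then reaction started with cofactor cocktail; sampled at 0, 10, 20, 30 and 60 min and quenched in acidified acetonitrile. Prodrug and released PEA quantified by LC-MS/MS; half-life from single-phase exponential fit of percent remaining versus time 0.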

[2] = pH 7.4, human plasma, test article 1 μM, 37° C., pH 7.4

In the case of `CCCCCCCCCCCCCCCC(=O)NCCOC(=O)CCC(=O)OCC(O)CO` (stereo not drawn) [Compound I-9], the half-life at 1 μM [1, 2] is reported as 3.8 min, the “% Remaining of Initial (n = 1), 0 min” value ([1]; test article 1 μM, 37° C.) is reported as 100% and the “% Remaining of Initial (n = 1), 15 min” value ([1]; test article 1 μM, 37° C.) is reported as 6.4%. For the same molecule, the “% Remaining of Initial (n = 1), 30 min” value ([1]; test article 1 μM, 37° C.) was 1.4%, the “% Remaining of Initial (n = 1), 60 min” value ([1]; test article 1 μM, 37° C.) was <1.0% and the “% Remaining of Initial (n = 1), 120 min” value ([1]; test article 1 μM, 37° C.) was <1.0%. For the same molecule, the “Concentration (μM) of analyte PEA, 0 min” value (in vitro; 0 min) was 0.048 µM, the “Concentration of analyte I-9” value (in vitro; 0 min) was 610 nM and the “Concentration of analyte PEA” value (in vitro; 0 min) was 210 nM. The “Concentration (μM) of analyte PEA, 10 min” value (in vitro; 10 min) was 0.18 µM, the “Concentration of analyte I-9” value (in vitro; 10 min) was 360 nM and the “Concentration of analyte PEA” value (in vitro; 10 min) was 500 nM. For the same molecule, the “Concentration (μM) of analyte PEA, 20 min” value (in vitro; 20 min) was 0.23 µM, the “Concentration of analyte I-9” value (in vitro; 20 min) was 99 nM and the “Concentration of analyte PEA” value (in vitro; 20 min) was 690 nM. The “Concentration (μM) of analyte PEA, 30 min” value (in vitro; 30 min) was 0.22 µM, the “Concentration of analyte I-9” value (in vitro; 30 min) was 29 nM and the “Concentration of analyte PEA” value (in vitro; 30 min) was 650 nM. The “Concentration (μM) of analyte PEA, 60 min” value (in vitro; 60 min) was 0.18 µM, the “Concentration of analyte I-9” value (in vitro; 60 min) was 4.3 nM and the “Concentration of analyte PEA” value (in vitro; 60 min) was 660 nM. The “% Remaining of Initial (n = 1)” value (in vitro; s9, 0 h) was 100%, the “% Remaining of Initial (n = 1), 0 min” value (in vitro; s9, 0 h) was 100% and the “% Remaining of Initial (n = 1)” value (in vitro; s9, 10 min) was 59%. The “% Remaining of Initial (n = 1), 10 min” value (in vitro; s9, 10 min) was 28%, the “% Remaining of Initial (n = 1)” value (in vitro; s9, 20 min) was 16% and the “% Remaining of Initial (n = 1), 20 min” value (in vitro; s9, 20 min) was 5.7%. The “% Remaining of Initial (n = 1), 30 min” value (in vitro; s9, 0.5 h) was 1.2%, the “% Remaining of Initial (n = 1)” value (in vitro; s9, 1 h) was <1.0% and the “% Remaining of Initial (n = 1), 60 min” value (in vitro; s9, 1 h) was <1.0%. For the same molecule, the microsomal CLint at 1 μM (in vitro; s9, CLint) was > 69.3 µL/min/mg, the microsomal CLint at 1 μM (in vitro; s9, CLint (mL/min/mg protein)) was 131 µL/min/mg and the microsomal CLint at 1 μM (in vitro; s9, CLint, calculated value in parentheses) was 75.3 µL/min/mg. The half-life at 1 μM (in vitro; s9, Half-Life, calculated value in parentheses) was 9.2 min, the half-life at 1 μM (in vitro; s9, Half-life) was < 10 min and the half-life at 1 μM (in vitro; s9, Half-life (min)) was 5.3 min.
In the case of `CCCCCCCCCCCCCCCC(=O)NCCOC(=O)CCC(=O)OCC(COC(=O)CCC)OC(=O)CCC` (stereo not drawn) [Compound I-11], the half-life at 1 μM [1, 2] is reported as 34 min, the “% Remaining of Initial (n = 1), 0 min” value ([1]; test article 1 μM, 37° C.) is reported as 100% and the “% Remaining of Initial (n = 1), 15 min” value ([1]; test article 1 μM, 37° C.) is reported as 67%. For the same molecule, the “% Remaining of Initial (n = 1), 30 min” value ([1]; test article 1 μM, 37° C.) was 47%, the “% Remaining of Initial (n = 1), 60 min” value ([1]; test article 1 μM, 37° C.) was 34% and the “% Remaining of Initial (n = 1), 120 min” value ([1]; test article 1 μM, 37° C.) was 10%. For the same molecule, the “Concentration (μM) of analyte PEA, 0 min” value (in vitro; 0 min) was 0.018 µM, the “Concentration (μM) of analyte PEA, 10 min” value (in vitro; 10 min) was 0.13 µM and the “Concentration (μM) of analyte PEA, 20 min” value (in vitro; 20 min) was 0.20 µM. The “Concentration (μM) of analyte PEA, 30 min” value (in vitro; 30 min) was 0.21 µM, the “Concentration (μM) of analyte PEA, 60 min” value (in vitro; 60 min) was 0.18 µM and the “% Remaining of Initial (n = 1), 0 min” value (in vitro; s9, 0 h) was 100%. The “% Remaining of Initial (n = 1), 10 min” value (in vitro; s9, 10 min) was 4.1%, the “% Remaining of Initial (n = 1), 20 min” value (in vitro; s9, 20 min) was 1.2% and the “% Remaining of Initial (n = 1), 30 min” value (in vitro; s9, 0.5 h) was <1.0%. The “% Remaining of Initial (n = 1), 60 min” value (in vitro; s9, 1 h) was <1.0%.
In the case of `CCCCC/C=C\C/C=C\CCCCCCCC(=O)OCC(COC(=O)CCC(=O)OCCNC(=O)CCCCCCCCCCCCCCC)OC(=O)CCCCCCC/C=C\C/C=C\CCCCC` (stereo not drawn) [Compound I-13], the “% Remaining of Initial (n = 1)” value ([1]; 0 min, 1 μM) is reported as 100%, the “% Remaining of Initial (n = 1)” value ([1]; 15 min, 1 μM) is reported as 104% and the “% Remaining of Initial (n = 1)” value ([1]; 30 min, 1 μM) is reported as 115%. The “% Remaining of Initial (n = 1)” value ([1]; 60 min, 1 μM) was 95%, the “% Remaining of Initial (n = 1)” value ([1]; 120 min, 1 μM) was 40% and the half-life at 1 μM ([1]; pH 7.4, Human plasma, 1 μM) was 120 min. For the same molecule, the “Concentration, analyte PEA” value (in vitro; 0 min) was 0 nM, the “Concentration, analyte PEA” value (in vitro; 10 min) was 10 nM and the “Concentration, analyte PEA” value (in vitro; 20 min) was 14 nM. For the same molecule, the “Concentration, analyte PEA” value (in vitro; 30 min) was 18 nM, the “Concentration, analyte PEA” value (in vitro; 60 min) was 31 nM and the “% Remaining of Initial (n = 1)” value (in vitro; s9, 0 h) was 100%. The “% Remaining of Initial (n = 1)” value (in vitro; s9, 10 min) was 86%, the “% Remaining of Initial (n = 1)” value (in vitro; s9, 20 min) was 86% and the “% Remaining of Initial (n = 1)” value (in vitro; s9, 0.5 h) was 86%. For the same molecule, the “% Remaining of Initial (n = 1)” value (in vitro; s9, 1 h) was 59%, the microsomal CLint at 1 μM (in vitro; s9, CLint) was < 11.6 µL/min/mg and the microsomal CLint at 1 μM (in vitro; s9, CLint, calculated (in parentheses)) was 7.57 µL/min/mg. The half-life at 1 μM (in vitro; s9, Half-life) was > 60 min and the half-life at 1 μM (in vitro; s9, Half-life, calculated (in parentheses)) was 92 min.
In the case of `CCCCCCCCCCCCCCCC(=O)NCCOC(=O)CCC(=O)OC(COC(=O)CCC)COC(=O)CCC` [Compound I-16], the half-life at 1 μM ([1]; pH 7.4, human plasma) is reported as 31 min, the “% Remaining of Initial” value ([1]; 0 min, 1 μM) is reported as 100% and the “% Remaining of Initial” value ([1]; 15 min, 1 μM) is reported as 78%. The “% Remaining of Initial” value ([1]; 30 min, 1 μM) was 51%, the “% Remaining of Initial” value ([1]; 60 min, 1 μM) was 24% and the “% Remaining of Initial” value ([1]; 120 min, 1 μM) was 5.8%. The “Measured concentration of PEA (analyte)” value (in vitro; 0 min) was 0 µM, the “Measured concentration of PEA (analyte)” value (in vitro; 10 min) was 0.17 µM and the “Measured concentration of PEA (analyte)” value (in vitro; 20 min) was 0.29 µM. The “Measured concentration of PEA (analyte)” value (in vitro; 30 min) was 0.33 µM, the “Measured concentration of PEA (analyte)” value (in vitro; 60 min) was 0.32 µM and the “% Remaining of Initial” value (in vitro; s9, 0 h) was 100%. For the same molecule, the “% Remaining of Initial” value (in vitro; s9, 10 min) was 3.2%, the “% Remaining of Initial” value (in vitro; s9, 20 min) was <1.0% and the “% Remaining of Initial” value (in vitro; s9, 0.5 h) was <1.0%. For the same molecule, the “% Remaining of Initial” value (in vitro; s9, 1 h) was <1.0%, the microsomal CLint at 1 μM (in vitro; s9, CLint) was > 69.3 µL/min/mg and the half-life at 1 μM (in vitro; s9, Half-life) was < 10 min.
